{
  "source": "patent US8551962B2",
  "about": "“High dosage doramectin formulation” (Zoetis LLC, priority 2009, dated 2013)",
  "origin": "cited, not measured here",
  "conditions": "beef cattle; single dose of 200 μg/Kg of body weight",
  "data": [
    {"smiles": "CO[C@H]1C[C@H](O[C@H]2[C@H](C)O[C@@H](O[C@@H]3/C(C)=C/C[C@@H]4C[C@@H](C[C@]5(C=C[C@H](C)[C@@H](C6CCCCC6)O5)O4)OC(=O)[C@@H]4C=C(C)[C@@H](O)[C@H]5OC/C(=C\\C=C\\[C@@H]3C)[C@]54O)C[C@@H]2OC)O[C@@H](C)[C@@H]1O", "note": "[doramectin]", "values": [
      {"measurement": "withhold time", "result": 35, "unit": "days"}
    ]}
  ]
}
